Data: BindingDB's records for doi:10.1016/j.bmcl.2008.03.027 (Scripps Florida, 2008)

What follows are molecules tested against Steroidogenic factor 1 (Homo sapiens, UniProt Q13285) (assay: Transactivation Cell-Based Assay).
Experimental: The assay was to monitor the SF-1 activation state via co-transfection of CHO-K1 cells with a plasmid encoding a Gal4-SF-1 chimerical transcription factor, pGal4DBD-SF-1-LBD, and a second plasmid driving luciferase expression under control of 5 multimerized Gal4 binding sites. The assay began by dispensing transfected cell suspension to each well (4,000 cells / well) of a white solid-bottom 1536-well plate. One hour after seeding, cells were treated with test compounds or DMSO alone (high control). The -NR cells (not co-transfected with nuclear receptor) were treated with DMSO (low control). After incubation, the luciferase assay was performed, and light emission was measured for 30 seconds with the ViewLux reader (PerkinElmer, Turku, Finland). Activity of each compound was calculated using the equation: Percent inhibition of compound=100 x (1-(test well-low control)/ (high control-low control)) EC50/IC50 is the concentration of test compound to exert 50% inhibition.

Sequence of Steroidogenic factor 1 (Q13285 whole entry, the tested form may be a part): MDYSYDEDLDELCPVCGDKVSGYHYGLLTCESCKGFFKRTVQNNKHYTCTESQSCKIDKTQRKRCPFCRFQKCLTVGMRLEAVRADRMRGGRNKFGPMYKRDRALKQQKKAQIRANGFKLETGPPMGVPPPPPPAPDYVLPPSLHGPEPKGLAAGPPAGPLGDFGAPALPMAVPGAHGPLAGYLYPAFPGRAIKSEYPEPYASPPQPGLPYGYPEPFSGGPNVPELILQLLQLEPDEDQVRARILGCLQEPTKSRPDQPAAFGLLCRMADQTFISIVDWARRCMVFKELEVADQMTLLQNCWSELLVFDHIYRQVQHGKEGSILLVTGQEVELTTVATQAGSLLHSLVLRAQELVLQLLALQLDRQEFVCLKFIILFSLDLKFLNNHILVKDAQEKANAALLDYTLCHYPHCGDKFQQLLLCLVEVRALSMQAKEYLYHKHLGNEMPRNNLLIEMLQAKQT

Question: For CCOC(=O)C(C)Oc1cccc2c(=O)n(CC(=O)Nc3ccc4c(c3)OCCO4)ccc12 (stereo unspecified), which EC50 is on record?
Answer: Its EC50 is 760 nM.

Question: Which EC50 does the source give for CCCCOc1cccc2c(=O)n(CC(=O)Nc3ccc4c(c3)OCCO4)ccc12 [2-(5-butoxy-1-oxo-1,2-dihydroisoquinolin-2-yl)-N-(2,3-dihydro-1,4-benzodioxin-6-yl)acetamide] here?
Answer: Its EC50 is 13700 nM.

Question: With CCC(C)Oc1cccc2c(=O)n(CC(=O)Nc3ccc4c(c3)OCCO4)ccc12 (stereo unspecified) [2-[5-(butan-2-yloxy)-1-oxo-1,2-dihydroisoquinolin-2-yl]-N-(2,3-dihydro-1,4-benzodioxin-6-yl)acetamide] as the molecule, how does the EC50 read?
Answer: The EC50 was 7860 nM.

Question: For CCCCC(C)Oc1cccc2c(=O)n(CC(=O)Nc3ccc4c(c3)OCCO4)ccc12 (stereo unspecified) [N-(2,3-dihydro-1,4-benzodioxin-6-yl)-2-[5-(hexan-2-yloxy)-1-oxo-1,2-dihydroisoquinolin-2-yl]acetamide], which EC50 is on record?
Answer: The EC50 was 880 nM.

Question: Which EC50 does the source give for CCOC(=O)C(C)Oc1cccc2c(=O)n(CCC(=O)Nc3ccc4c(c3)OCCO4)ccc12 (stereo unspecified) [ethyl 2-({2-[2-(2,3-dihydro-1,4-benzodioxin-6-ylcarbamoyl)ethyl]-1-oxo-1,2-dihydroisoquinolin-5-yl}oxy)propanoate] here?
Answer: The EC50 was 8460 nM.

Question: With CCOC(=O)C(C)(C)Oc1cccc2c(=O)n(CC(=O)Nc3ccc4c(c3)OCCO4)ccc12 [ethyl 2-({2-[(2,3-dihydro-1,4-benzodioxin-6-ylcarbamoyl)methyl]-1-oxo-1,2-dihydroisoquinolin-5-yl}oxy)-2-methylpropanoate] as the molecule, how does the EC50 read?
Answer: Its EC50 is 590 nM.

Question: With CCOC(=O)C(C)Oc1cccc2c(=O)n(CC(=O)NCc3ccccc3)ccc12 (stereo unspecified) [ethyl 2-({2-[(benzylcarbamoyl)methyl]-1-oxo-1,2-dihydroisoquinolin-5-yl}oxy)propanoate] as the molecule, how does the EC50 read?
Answer: Its EC50 is 1060 nM.

Question: How did the EC50 turn out when CCCCNC(=O)Cn1ccc2c(OC(C)C(=O)OCC)cccc2c1=O (stereo unspecified) [ethyl 2-({2-[(butylcarbamoyl)methyl]-1-oxo-1,2-dihydroisoquinolin-5-yl}oxy)propanoate] was run?
Answer: Its EC50 is 9710 nM.

Question: Which EC50 does the source give for CCOC(=O)C(C)Oc1cccc2c(=O)n(CC(=O)NC3CCCCC3)ccc12 (stereo unspecified) [ethyl 2-({2-[(cyclohexylcarbamoyl)methyl]-1-oxo-1,2-dihydroisoquinolin-5-yl}oxy)propanoate] here?
Answer: The EC50 was 1770 nM.

Question: With CCOC(=O)C(C)Oc1cccc2c(=O)n(CC(=O)NCCc3ccccc3)ccc12 (stereo unspecified) [ethyl 2-[(1-oxo-2-{[(2-phenylethyl)carbamoyl]methyl}-1,2-dihydroisoquinolin-5-yl)oxy]propanoate] as the molecule, how does the EC50 read?
Answer: The EC50 was 360 nM.

Question: CCOC(=O)C(C)Oc1cccc2c(=O)n(CC(=O)N(C)c3ccc4c(c3)OCCO4)ccc12 (stereo unspecified) [ethyl 2-[(2-{[2,3-dihydro-1,4-benzodioxin-6-yl(methyl)carbamoyl]methyl}-1-oxo-1,2-dihydroisoquinolin-5-yl)oxy]propanoate] was tested. Which EC50 did it give?
Answer: The EC50 was 3570 nM.

Question: With CCOC(=O)C(C)Oc1cccc2c(=O)n(CC(=O)NCc3ccc4c(c3)OCO4)ccc12 (stereo unspecified) [ethyl 2-[(2-{[(2H-1,3-benzodioxol-5-ylmethyl)carbamoyl]methyl}-1-oxo-1,2-dihydroisoquinolin-5-yl)oxy]propanoate] as the molecule, how does the EC50 read?
Answer: The EC50 was 260 nM.

Question: For CCCCc1ccc(NC(=O)Cn2ccc3c(OC(C)C(=O)OCC)cccc3c2=O)cc1 (stereo unspecified) [ethyl 2-[(2-{[(4-butylphenyl)carbamoyl]methyl}-1-oxo-1,2-dihydroisoquinolin-5-yl)oxy]propanoate], which EC50 is on record?
Answer: Its EC50 is 360 nM.

Question: Which EC50 does the source give for CCOC(=O)C(C)Oc1cccc2c(=O)n(CC(=O)Nc3ccc(OCC)cc3)ccc12 (stereo unspecified) [ethyl 2-[(2-{[(4-ethoxyphenyl)carbamoyl]methyl}-1-oxo-1,2-dihydroisoquinolin-5-yl)oxy]propanoate] here?
Answer: The EC50 was 190 nM.

Question: How did the EC50 turn out when CCOC(=O)C(C)Oc1cccc2c(=O)n(CC(=O)Nc3ccc(CC)cc3)ccc12 (stereo unspecified) [ethyl 2-[(2-{[(4-ethylphenyl)carbamoyl]methyl}-1-oxo-1,2-dihydroisoquinolin-5-yl)oxy]propanoate] was run?
Answer: The EC50 was 110 nM.

Question: With CCOC(=O)C(C)Oc1cccc2c(=O)n(CC(=O)Nc3ccc(OC)cc3)ccc12 (stereo unspecified) [ethyl 2-[(2-{[(4-methoxyphenyl)carbamoyl]methyl}-1-oxo-1,2-dihydroisoquinolin-5-yl)oxy]propanoate] as the molecule, how does the EC50 read?
Answer: The EC50 was 200 nM.

Question: How did the EC50 turn out when CCOC(=O)C(C)Oc1cccc2c(=O)n(CC(=O)Nc3ccc(C)cc3)ccc12 (stereo unspecified) [ethyl 2-[(2-{[(4-methylphenyl)carbamoyl]methyl}-1-oxo-1,2-dihydroisoquinolin-5-yl)oxy]propanoate] was run?
Answer: Its EC50 is 340 nM.

Question: Which EC50 does the source give for CCOC(=O)C(C)Oc1cccc2c(=O)n(CC(=O)Nc3ccc([N+](=O)[O-])cc3)ccc12 (stereo unspecified) [ethyl 2-[(2-{[(4-nitrophenyl)carbamoyl]methyl}-1-oxo-1,2-dihydroisoquinolin-5-yl)oxy]propanoate] here?
Answer: Its EC50 is 530 nM.

Question: For CCOC(=O)C(C)Oc1cccc2c(=O)n(CC(=O)NCc3ccco3)ccc12 (stereo unspecified) [ethyl 2-[(2-{[(furan-2-ylmethyl)carbamoyl]methyl}-1-oxo-1,2-dihydroisoquinolin-5-yl)oxy]propanoate], which EC50 is on record?
Answer: The EC50 was 4710 nM.

Question: With CCOC(=O)C(C)Oc1cccc2c(=O)n(CC(=O)Nc3ccc(OC(F)(F)F)cc3)ccc12 (stereo unspecified) [ethyl 2-{[1-oxo-2-({[4-(trifluoromethoxy)phenyl]carbamoyl}methyl)-1,2-dihydroisoquinolin-5-yl]oxy}propanoate] as the molecule, how does the EC50 read?
Answer: The EC50 was 200 nM.

Question: Which EC50 does the source give for CCOC(=O)C(C)Oc1cccc2c(=O)n(CC(=O)NCc3ccc(F)cc3)ccc12 (stereo unspecified) [ethyl 2-{[2-({[(4-fluorophenyl)methyl]carbamoyl}methyl)-1-oxo-1,2-dihydroisoquinolin-5-yl]oxy}propanoate] here?
Answer: The EC50 was 680 nM.
